Assay results taken from PMC9636434, “Discovery of small molecule agonists of the Relaxin Family Peptide Receptor 2” (Communications Biology, 2022).
“And” between values parts separate entries of the source, which are not always exact repeats. Equal entries are not always repeated.

Assays:
WT RXFP1 = biological target: T1, WT RXFP1 (Homo sapiens, UniProt Q9HBX9); experiment: HTRF cAMP assay in HEK293T cells transiently transfected with WT RXFP1; format: cell-based
T1 construct: expressed in transfected cells; host or cells: HEK293T, transient transfection, pcDNA3.1/Zeo(+)
T1 sequence (Q9HBX9 1-757): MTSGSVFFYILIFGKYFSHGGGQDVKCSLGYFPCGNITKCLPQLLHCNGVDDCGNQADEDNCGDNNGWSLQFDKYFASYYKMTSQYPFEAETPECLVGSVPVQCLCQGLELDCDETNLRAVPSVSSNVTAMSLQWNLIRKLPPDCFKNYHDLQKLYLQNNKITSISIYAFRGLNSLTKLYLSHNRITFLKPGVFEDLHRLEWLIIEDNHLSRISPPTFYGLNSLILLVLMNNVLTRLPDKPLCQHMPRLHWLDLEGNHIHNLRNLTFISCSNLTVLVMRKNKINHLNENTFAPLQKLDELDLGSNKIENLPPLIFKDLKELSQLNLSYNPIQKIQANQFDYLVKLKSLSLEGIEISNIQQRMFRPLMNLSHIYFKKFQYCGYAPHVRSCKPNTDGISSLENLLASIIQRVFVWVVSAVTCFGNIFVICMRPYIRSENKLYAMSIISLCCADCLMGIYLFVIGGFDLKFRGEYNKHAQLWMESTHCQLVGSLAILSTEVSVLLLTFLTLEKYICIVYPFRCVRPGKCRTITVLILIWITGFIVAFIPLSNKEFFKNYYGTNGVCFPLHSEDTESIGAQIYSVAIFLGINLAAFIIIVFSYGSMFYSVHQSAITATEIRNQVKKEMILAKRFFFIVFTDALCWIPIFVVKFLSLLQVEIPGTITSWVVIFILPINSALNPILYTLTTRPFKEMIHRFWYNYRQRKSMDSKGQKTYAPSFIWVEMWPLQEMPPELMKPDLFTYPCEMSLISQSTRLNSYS
Experimental: Fig. 2 6641 is an allosteric agonist of RXFP2. a HEK-RXFP2 cells co-treated with serial dilutions of INSL3 B dimer antagonist and 30 nM INSL3 or 0.28 µM 6641. HTRF cAMP dose-response inhibition curves were normalized to activity without antagonist co-treatment as 0% inhibition. b HTRF cAMP assay in HEK293T cells transiently transfected with WT or chimeric receptors. Chimera RXFP2-1 contains the extracellular domain of RXFP2 and the transmembrane domain of RXFP1, while chimera RXFP1-2 contains the extracellular domain of RXFP1 and the transmembrane domain of RXFP2. For each receptor, cAMP response induced by INSL3 and 6641 was normalized to FSK (2 µM) as 100% efficacy and DMSO vehicle as 0% efficacy. Emax and EC50 were calculated using four parameter nonlinear fit dose-response curves. Results are expressed as mean ± SEM of 3 independent experiments. Diagrams of the chimeric receptors were produced using GPCRdb.org[58], [59].
Complementary RXFP2-1 and RXFP1-2 chimeric receptors were used to further investigate the involvement of the RXFP2 extracellular and transmembrane domains on 6641 activity. RXFP2-1 has the extracellular domain of RXFP2 and transmembrane domain of RXFP1, and RXFP1-2 is its complement.
The HTRF Gs dynamic cAMP assay kit (CisBio, Bedford, MA) was used to measure intracellular cAMP accumulation in HEK293T cells (ATCC, Manassas, VA)[56]. […] The cell stock was verified mycoplasma free and authenticated by ATCC. Transient transfection was accomplished by treating cells in a 6-well plate with a mixture of 2 μg plasmid and 6 μL Lipofectamine 2000 (Invitrogen, Waltham, MA) per manufacturer’s protocol and incubating overnight. For cAMP measurement in 96-well format, HEK293T cells stably transfected with human RXFP2 (HEK-RXFP2), human RXFP1 (HEK-RXFP1), mouse Rxfp1 (HEK-Rxfp1) or transiently transfected with human RXFP1-RXFP2 chimeric receptors were seeded between 7500 and 30,000 cells per well, depending on cell line responsiveness, in serum-free DMEM medium and incubated overnight at 37 °C, 5% CO2. After 18 h, cells were treated with a titration of compound, 2 μM forskolin, or DMSO vehicle. Control wells were also treated with a titration of INSL3 (Phoenix Pharmaceuticals, Burlingame, CA) or human recombinant relaxin 2 (Peprotech, Cranbury, NJ). For the RXFP2 antagonist experiment, cells were co-treated with 0.28 μM compound or 30 nM INSL3 and a titration of the INSL3 B dimer antagonist[38],[39]. For the INSL3 allosteric modulation experiment, cells were co-treated with 0.025, 0.0025, or 0.00025 μM of compound and a titration of INSL3. […] Plates were incubated for 1 h at room temperature and the signal was read on a CLARIOstar plate reader (BMG Labtech, Ortenberg, Germany) at 665 and 620 nm emission wavelengths.

RXFP2 = RXFP2 (Homo sapiens, UniProt Q8WXD0); experiment: INSL3 allosteric modulation experiment, HTRF cAMP, co-treatment 6641 and INSL3; format: cell-based; design: FLAG (N); expressed in transfected cells; conditions: for % Eff: 6641 alone, replicates (1)-(3)
From the text: We have further analyzed the effect of simultaneous activation of human RXFP2 with 6641 and INSL3 to evaluate possible allosteric modulation of INSL3 cAMP signaling by the small molecule (Supplementary Fig. 8).
The HTRF Gs dynamic cAMP assay kit (CisBio, Bedford, MA) was used to measure intracellular cAMP accumulation in HEK293T cells (ATCC, Manassas, VA)[56]. […] The cell stock was verified mycoplasma free and authenticated by ATCC. Transient transfection was accomplished by treating cells in a 6-well plate with a mixture of 2 μg plasmid and 6 μL Lipofectamine 2000 (Invitrogen, Waltham, MA) per manufacturer’s protocol and incubating overnight. For cAMP measurement in 96-well format, HEK293T cells stably transfected with human RXFP2 (HEK-RXFP2), human RXFP1 (HEK-RXFP1), mouse Rxfp1 (HEK-Rxfp1) or transiently transfected with human RXFP1-RXFP2 chimeric receptors were seeded between 7500 and 30,000 cells per well, depending on cell line responsiveness, in serum-free DMEM medium and incubated overnight at 37 °C, 5% CO2. After 18 h, cells were treated with a titration of compound, 2 μM forskolin, or DMSO vehicle. Control wells were also treated with a titration of INSL3 (Phoenix Pharmaceuticals, Burlingame, CA) or human recombinant relaxin 2 (Peprotech, Cranbury, NJ). For the RXFP2 antagonist experiment, cells were co-treated with 0.28 μM compound or 30 nM INSL3 and a titration of the INSL3 B dimer antagonist[38],[39]. For the INSL3 allosteric modulation experiment, cells were co-treated with 0.025, 0.0025, or 0.00025 μM of compound and a titration of INSL3. Cells were incubated for 1 h at 37 °C, 5% CO2, and then kit cAMP-d2 and anti-cAMP antibody were added per manufacturer protocol. Plates were incubated for 1 h at room temperature and the signal was read on a CLARIOstar plate reader (BMG Labtech, Ortenberg, Germany) at 665 and 620 nm emission wavelengths.
cAMP response in HEK293T cells expressing human RXFP2 was measured by HTRF
assay after treatment with a titration of INSL3 and suboptimal concentrations of 6641.
Results are expressed as mean ± SEM of 3 independent experiments.
(1 picture or pasted object on this page, not shown here)

Sequence of RXFP2 (Q8WXD0 whole entry): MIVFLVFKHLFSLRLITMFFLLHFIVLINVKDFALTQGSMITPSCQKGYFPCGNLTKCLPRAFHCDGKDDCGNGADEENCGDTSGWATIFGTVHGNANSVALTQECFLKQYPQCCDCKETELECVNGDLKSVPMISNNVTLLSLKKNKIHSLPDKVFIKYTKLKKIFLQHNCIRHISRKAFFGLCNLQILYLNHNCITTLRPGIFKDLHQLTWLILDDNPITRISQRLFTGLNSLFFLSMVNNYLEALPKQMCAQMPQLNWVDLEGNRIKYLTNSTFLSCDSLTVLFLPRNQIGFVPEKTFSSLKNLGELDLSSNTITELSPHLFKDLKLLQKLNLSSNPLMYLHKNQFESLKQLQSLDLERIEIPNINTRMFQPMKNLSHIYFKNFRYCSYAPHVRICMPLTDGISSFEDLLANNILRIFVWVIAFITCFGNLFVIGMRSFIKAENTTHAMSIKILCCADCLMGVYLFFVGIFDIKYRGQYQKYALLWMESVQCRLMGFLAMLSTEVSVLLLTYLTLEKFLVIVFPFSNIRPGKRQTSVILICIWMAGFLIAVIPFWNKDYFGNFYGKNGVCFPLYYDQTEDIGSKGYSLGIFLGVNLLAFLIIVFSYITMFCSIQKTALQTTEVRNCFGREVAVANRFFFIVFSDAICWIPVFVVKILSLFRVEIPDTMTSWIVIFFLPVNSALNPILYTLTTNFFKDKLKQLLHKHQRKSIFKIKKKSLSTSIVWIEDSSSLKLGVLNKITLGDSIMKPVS

O=C1Nc2ccc(-c3cc(C(F)(F)F)cc(C(F)(F)F)c3)cc2C(=O)N2CCN(C(=O)COc3ccc(OC(F)(F)F)cc3I)C[C@@H]12 [compound 6641]
EC50 (1)-(3) (WT RXFP1; 6641, individual experiments): Inactive | EC50 (AVERAGE) (WT RXFP1; 6641, mean of 3): Inactive | Emax (1)-(3) (WT RXFP1; individual experiments, FSK (2 µM) = 100% efficacy): Inactive | Emax (AVERAGE) (WT RXFP1; mean of 3, FSK (2 µM) = 100% efficacy): Inactive | effect of co-stimulation with INSL3 on cAMP production (RXFP2; 0.025, 0.0025 or 0.00025 μM compound and titration of INSL3): simple additive effect | % Eff (RXFP2; Log [M] -4.60): 75.1113% and 97.1676% and 94.1213% | % Eff (RXFP2; Log [M] -5.60): 93.2943% and 114.987% and 113.554% | % Eff (RXFP2; Log [M] -6.60): 74.6686% and 120.861% and 97.4942% | % Eff (RXFP2; Log [M] -7.60): 50.914% and 51.0623% and 52.8348% | % Eff (RXFP2; Log [M] -8.60): 8.681% and 8.081% and 10.3062% | % Eff (RXFP2; Log [M] -9.60): 0.2079% and -1.122% and -1.231%
